The target of one assay is T1, p38α (Homo sapiens, UniProt Q16539).
T1 construct: purchased Millipore
Put plainly: p38 kinase assay, p38-α with peptide substrate (Caliper LabChip). The assay is classed as biochemical. As for the experimental part: Alternatively, p38 kinase assays were performed in a reaction volume of 70 μL in a 384-well plate, at 30° for […] under the following conditions: 50 mM Hepes, pH 7.4, 10 mM MgCl2, 1 mg/ml FA Free BSA, 1 mM DTT, 10 μM ATP, 10 μM p38 peptide [Caliper Life Sciences FL-Peptide 8 (5-FAM-IPTSPITTTYFFFKKK-COOH)] and 5.7 nM p38-α (Millipore), or 14.3 nM unactivated MAPKAP kinase-2, 0.18 nM p38-α (Millipore) and 2 uM RSK peptide [Caliper Life Sciences FL-Peptide 11 (5-FAM-KKLNRTLSVA-COOH)]. Serial dilutions of compounds were added to each reaction in 700 nL DMSO. 700 nL of DMSO was added to the control wells of the reaction plate as the no inhibitor control for each inhibitor titration. The reaction was terminated by the addition of 15 μL of a 100 mM EDTA. Product formation was analyzed using the Caliper LabChip 3000. The Separation buffer contained 100 mM HEPES pH 7.5, 0.015% Brij-35, 2.5% Coating Reagent #3 (Caliper Life Sciences) and 10 mM EDTA. Calculation of the substrate product ratios are performed using the HTS Well Analyzer software provided by Caliper Life Sciences and the percent inhibition at each compound concentration is determined.

The next assay has as its system TNF-α. Put plainly: IC50 hWB (TNF-α release assay). As to conditions: Homo sapiens. The assay is classed as cell-based. As for the experimental part: Blood was obtained from healthy volunteers by venipuncture using sodium heparin as an anti-coagulant. Peripheral blood mononuclear cells (PBMCs) were isolated using Lymphocyte Separation Medium (ICN) according to manufacturers specifications. Isolated PBMCs were washed 3 times with FIBSS and diluted to a density of 2×10^6 cells/mL in RPMI+5% autologous human serum. 50 μL of the serial dilutions of inhibitor were added to wells of a 96-well tissue culture plate followed by addition of 100 μL of PBMCs and then 50 μL of RPMI complete medium containing 400 ng/mL LPS. A control well of cells without compound but with LPS (maximal stimulation control) and one without compound and without LPS (background control) were included in each titration. The cells were incubated for 16 hours in a humidified incubator at 37° C., 5% CO2. Supernatants were then harvested and TNF-α levels were quantified by immunoassay using commercial reagents (R&D, Inc).

The IC50 is the point on the concentration scale where inhibition reaches its midpoint. Higher therefore signals a need for much substance.

T1 sequence (Q16539 whole entry): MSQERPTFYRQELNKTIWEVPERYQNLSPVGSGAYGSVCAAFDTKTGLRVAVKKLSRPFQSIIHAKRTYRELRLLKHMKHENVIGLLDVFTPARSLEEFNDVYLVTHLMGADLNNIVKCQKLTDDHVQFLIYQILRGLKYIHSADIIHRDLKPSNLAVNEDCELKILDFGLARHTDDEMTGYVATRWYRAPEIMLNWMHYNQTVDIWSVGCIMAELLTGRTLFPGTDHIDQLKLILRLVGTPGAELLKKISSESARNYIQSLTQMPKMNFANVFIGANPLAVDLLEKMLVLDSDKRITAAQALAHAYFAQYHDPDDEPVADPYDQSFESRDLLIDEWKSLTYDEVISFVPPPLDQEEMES

Consider `O=C(c1c(F)cccc1F)c1c[nH]c2c(=O)n(Cc3nc4ncc(C(F)(F)F)cc4[nH]3)ccc12` [Example 21, 3-(2,6-difluorobenzoyl)-6-{[6-(trifluoromethyl)-3H-imidazo[4,5-b]pyridin-2-yl]methyl}-1,6-dihydro-7H-pyrrolo[2,3-c]pyridin-7-one], for which the IC50 against p38α worked out at 38 nM; in the assay on TNF-α, 2060 nM.
For the compound `CN(C)C(=O)c1ccn2cc(Cn3ccc4c(C(=O)c5c(F)cc(F)cc5F)c[nH]c4c3=O)nc2c1` [Example 24, N,N-dimethyl-2-{[7-oxo-3-(2,4,6-trifluorobenzoyl)-1,7-dihydro-6H-pyrrolo[2,3-c]pyridin-6-yl]methyl}imidazo[1,2-a]pyridine-7-carboxamide], the IC50 was 3.8 nM on p38α and 21 nM with TNF-α.
For `O=c1c2[nH]cc(Cc3c(F)cc(F)cc3F)c2ccn1Cc1nc2ncccc2[nH]1` [Example 29, 6-(1H-imidazo[4,5-b]pyridin-2-ylmethyl)-3-(2,4,6-trifluorobenzyl)-1,6-dihydro-7H-pyrrolo[2,3-c]pyridin-7-one], the figures for the concentration for half-maximal inhibition (IC50) at p38α and with TNF-α were 108 nM and 503 nM, respectively.

The values are drawn from patent US20110105430A1, “PYRROLO [2,3-C] PYRIDINE DERIVATIVES AS P38 KINEASE INHIBITING AGENTS” (priority 2008, published 2011).
